Data as given in patent US20230053540A1, “TREATMENT OF LIVER INJURY” (Massachusetts Institute of Technology, priority 2019, published 2023).

Tested on: hepatocytes
Experiment: Seq-Well scRNA-Seq of hepatocytes after APAP overdose (signature scores, DEG vs untreated)
Type: in vivo, mouse

CC(=O)Nc1ccc(O)cc1 [APAP, acetaminophen]
Rpl34 logFC (APAP vs UT, A24logFC): −0.2976 | Rps24 logFC (APAP vs UT, A24logFC): −0.2625 | Rraga logFC (APAP vs UT, A24logFC): 0.2626 | Rsl1d1 logFC (APAP vs UT, A24logFC): 0.3461 | Selo logFC (APAP vs UT, A24logFC): −0.2574 | Sema4g logFC (APAP vs UT, A24logFC): −0.2505 | Serbp1 logFC (APAP vs UT, A24logFC): 0.3227 | Sf3b1 logFC (APAP vs UT, A24logFC): 0.2888 | Sigmar1 logFC (APAP vs UT, A24logFC): −0.3055 | Slc16a2 logFC (APAP vs UT, A24logFC): −0.252 | Slc16a10 logFC (APAP vs UT, A24logFC): −0.2548 | Slc25a51 logFC (APAP vs UT, A24logFC): 0.264 | Slc26a1 logFC (APAP vs UT, A24logFC): −0.2817 | Slc30a1 logFC (APAP vs UT, A24logFC): 0.2506 | Slc35d1 logFC (APAP vs UT, A24logFC): 0.3094 | Smoc1 logFC (APAP vs UT, A24logFC): 0.2616 | Spag9 logFC (APAP vs UT, A24logFC): 0.3188 | Spcs1 logFC (APAP vs UT, A24logFC): −0.2629 | Sptan1 logFC (APAP vs UT, A24logFC): 0.3127 | Srd5a1 logFC (APAP vs UT, A24logFC): −0.2773 | Srrm2 logFC (APAP vs UT, A24logFC): 0.3282 | St3gal4 logFC (APAP vs UT, A24logFC): 0.275 | Swi5 logFC (APAP vs UT, A24logFC): −0.2621 | Tab2 logFC (APAP vs UT, A24logFC): 0.3484 | Tbca logFC (APAP vs UT, A24logFC): −0.2726 | Tln1 logFC (APAP vs UT, A24logFC): 0.321 | Tmem86b logFC (APAP vs UT, A24logFC): −0.2582 | Tmem150a logFC (APAP vs UT, A24logFC): −0.2535 | Tmem242 logFC (APAP vs UT, A24logFC): −0.2725 | Tpi1 logFC (APAP vs UT, A24logFC): −0.2616 | Trip11 logFC (APAP vs UT, A24logFC): 0.3479 | Ubr5 logFC (APAP vs UT, A24logFC): 0.3057 | Ugt3a2 logFC (APAP vs UT, A24logFC): −0.2586 | Usp7 logFC (APAP vs UT, A24logFC): 0.2873 | Usp34 logFC (APAP vs UT, A24logFC): 0.2859 | Xrn2 logFC (APAP vs UT, A24logFC): 0.2985 | Ythdc1 logFC (APAP vs UT, A24logFC): 0.2641 | Zfand5 logFC (APAP vs UT, A24logFC): 0.2882 | Zfp106 logFC (APAP vs UT, A24logFC): 0.3369 | Zfp259 logFC (APAP vs UT, A24logFC): 0.2556 | 2810007J24Rik avg_logFC (APAP vs. UT): −0.2871 | 2810007J24Rik pct.1 (APAP vs. UT): 0.909 | Aadac avg_logFC (APAP vs. UT): −0.3243 | Aadac pct.1 (APAP vs. UT): 0.849 | Abca6 avg_logFC (APAP vs. UT): 0.2637 | Abca6 pct.1 (APAP vs. UT): 0.679 | Abcb4 avg_logFC (APAP vs. UT): 0.2759 | Abcb4 pct.1 (APAP vs. UT): 0.78 | Acaa1b avg_logFC (APAP vs. UT): −0.3158 | Acaa1b pct.1 (APAP vs. UT): 0.883 | Adh1 avg_logFC (APAP vs. UT): −0.3122 | Adh1 pct.1 (APAP vs. UT): 0.941 | Agpat6 avg_logFC (APAP vs. UT): 0.2706 | Agpat6 pct.1 (APAP vs. UT): 0.695 | Agt avg_logFC (APAP vs. UT): 0.3007 | Agt pct.1 (APAP vs. UT): 0.859 | Akr1c6 avg_logFC (APAP vs. UT): −0.5047 | Akr1c6 pct.1 (APAP vs. UT): 0.92 | Aldh9a1 avg_logFC (APAP vs. UT): 0.2715 | Aldh9a1 pct.1 (APAP vs. UT): 0.836 | Aldob avg_logFC (APAP vs. UT): 0.2576 | Aldob pct.1 (APAP vs. UT): 0.997 | Angptl3 avg_logFC (APAP vs. UT): 0.414 | Angptl3 pct.1 (APAP vs. UT): 0.961 | Apoa4 avg_logFC (APAP vs. UT): 0.5984 | Apoa4 pct.1 (APAP vs. UT): 0.574 | Apob avg_logFC (APAP vs. UT): 0.2678 | Apob pct.1 (APAP vs. UT): 0.989 | Apoc2 avg_logFC (APAP vs. UT): 0.5107 | Apoc2 pct.1 (APAP vs. UT): 0.851 | Arhgap5 avg_logFC (APAP vs. UT): 0.2875 | Arhgap5 pct.1 (APAP vs. UT): 0.647 | Arhgef12 avg_logFC (APAP vs. UT): 0.2783 | Arhgef12 pct.1 (APAP vs. UT): 0.597 | Asl avg_logFC (APAP vs. UT): 0.3374 | Asl pct.1 (APAP vs. UT): 0.859 | Atp1a1 avg_logFC (APAP vs. UT): 0.2871 | Atp1a1 pct.1 (APAP vs. UT): 0.623 | Atp2a2 avg_logFC (APAP vs. UT): 0.3031 | Atp2a2 pct.1 (APAP vs. UT): 0.666 | Bach1 avg_logFC (APAP vs. UT): 0.2613 | Bach1 pct.1 (APAP vs. UT): 0.356 | Bche avg_logFC (APAP vs. UT): 0.2566 | Bche pct.1 (APAP vs. UT): 0.562 | Brd2 avg_logFC (APAP vs. UT): 0.2856 | Brd2 pct.1 (APAP vs. UT): 0.59 | Btg2 avg_logFC (APAP vs. UT): 0.2635 | Btg2 pct.1 (APAP vs. UT): 0.401 | C8g avg_logFC (APAP vs. UT): −0.2582 | C8g pct.1 (APAP vs. UT): 0.859 | Car3 avg_logFC (APAP vs. UT): −0.3762 | Car3 pct.1 (APAP vs. UT): 0.956 | Cdo1 avg_logFC (APAP vs. UT): 0.2665 | Cdo1 pct.1 (APAP vs. UT): 0.964 | Ces3a avg_logFC (APAP vs. UT): −0.3174 | Ces3a pct.1 (APAP vs. UT): 0.93 | Ces3b avg_logFC (APAP vs. UT): −0.284 | Ces3b pct.1 (APAP vs. UT): 0.727 | Chchd2 avg_logFC (APAP vs. UT): −0.2575 | Chchd2 pct.1 (APAP vs. UT): 0.874 | Chchd10 avg_logFC (APAP vs. UT): 0.3833 | Chchd10 pct.1 (APAP vs. UT): 0.925 | Chka avg_logFC (APAP vs. UT): 0.2892 | Chka pct.1 (APAP vs. UT): 0.312 | Cite avg_logFC (APAP vs. UT): 0.3077 | Cite pct.1 (APAP vs. UT): 0.602 | Cml1 avg_logFC (APAP vs. UT): −0.2953 | Cml1 pct.1 (APAP vs. UT): 0.709 | Cox4i1 avg_logFC (APAP vs. UT): −0.2627 | Cox4i1 pct.1 (APAP vs. UT): 0.941 | Cox6c avg_logFC (APAP vs. UT): −0.3432 | Cox6c pct.1 (APAP vs. UT): 0.808 | Cox7a2 avg_logFC (APAP vs. UT): −0.2511 | Cox7a2 pct.1 (APAP vs. UT): 0.722 | Cp avg_logFC (APAP vs. UT): 0.3758 | Cp pct.1 (APAP vs. UT): 0.965 | Cpt1a avg_logFC (APAP vs. UT): 0.285 | Cpt1a pct.1 (APAP vs. UT): 0.775 | Creld2 avg_logFC (APAP vs. UT): 0.2626 | Creld2 pct.1 (APAP vs. UT): 0.487 | Csde1 avg_logFC (APAP vs. UT): 0.2739 | Csde1 pct.1 (APAP vs. UT): 0.749 | Cyb5 avg_logFC (APAP vs. UT): −0.2845 | Cyb5 pct.1 (APAP vs. UT): 0.972 | Cyp4a10 avg_logFC (APAP vs. UT): 0.7159 | Cyp4a10 pct.1 (APAP vs. UT): 0.727 | Cyp4a14 avg_logFC (APAP vs. UT): 1.281 | Cyp4a14 pct.1 (APAP vs. UT): 0.714 | D17Wsu92e avg_logFC (APAP vs. UT): 0.2809 | D17Wsu92e pct.1 (APAP vs. UT): 0.736 | Ddx3x avg_logFC (APAP vs. UT): 0.2753 | Ddx3x pct.1 (APAP vs. UT): 0.689 | Ddx21 avg_logFC (APAP vs. UT): 0.2576 | Dennd5b avg_logFC (APAP vs. UT): 0.2562 | Dennd5b pct.1 (APAP vs. UT): 0.55 | Dhcr24 avg_logFC (APAP vs. UT): 0.3629 | Dhcr24 pct.1 (APAP vs. UT): 0.883 | Eif1a avg_logFC (APAP vs. UT): 0.2667 | Eif1a pct.1 (APAP vs. UT): 0.492 | Eif4g2 avg_logFC (APAP vs. UT): 0.3407 | Eif4g2 pct.1 (APAP vs. UT): 0.824 | Ell2 avg_logFC (APAP vs. UT): 0.2572 | Ell2 pct.1 (APAP vs. UT): 0.609 | Elovl3 avg_logFC (APAP vs. UT): −0.5221 | Elovl3 pct.1 (APAP vs. UT): 0.65 | Epb4.1 avg_logFC (APAP vs. UT): 0.2567 | Epb4.1 pct.1 (APAP vs. UT): 0.527 | Etf1 pct.1 (APAP vs. UT): 0.61 | Etnppl avg_logFC (APAP vs. UT): 0.2637 | Etnppl pct.1 (APAP vs. UT): 0.647 | Fabp1 avg_logFC (APAP vs. UT): −0.3078 | Fabp1 pct.1 (APAP vs. UT): 0.992 | Fam134b avg_logFC (APAP vs. UT): 0.2987 | Fam134b pct.1 (APAP vs. UT): 0.589 | Fga avg_logFC (APAP vs. UT): 0.4335 | Fga pct.1 (APAP vs. UT): 0.996 | Fgb avg_logFC (APAP vs. UT): 0.3905 | Fgb pct.1 (APAP vs. UT): 0.999 | Fgg avg_logFC (APAP vs. UT): 0.3391 | Fgg pct.1 (APAP vs. UT): 0.997 | Fgl1 avg_logFC (APAP vs. UT): 0.3611 | Fgl1 pct.1 (APAP vs. UT): 0.861 | Fos avg_logFC (APAP vs. UT): 0.2633 | Fos pct.1 (APAP vs. UT): 0.609 | Gadd45g avg_logFC (APAP vs. UT): −0.3405 | Gadd45g pct.1 (APAP vs. UT): 0.503 | Gclc avg_logFC (APAP vs. UT): 0.671 | Gclc pct.1 (APAP vs. UT): 0.839 | Gfra1 avg_logFC (APAP vs. UT): 0.2536 | Gfra1 pct.1 (APAP vs. UT): 0.676 | Gjb2 avg_logFC (APAP vs. UT): 0.2803 | Gjb2 pct.1 (APAP vs. UT): 0.725 | Gm2a avg_logFC (APAP vs. UT): 0.2814 | Gm2a pct.1 (APAP vs. UT): 0.599 | Gm13775 avg_logFC (APAP vs. UT): −1.061 | Gm13775 pct.1 (APAP vs. UT): 0.306 | Gm15564 avg_logFC (APAP vs. UT): 1.171 | Gm15564 pct.1 (APAP vs. UT): 0.981 | Gm23935 avg_logFC (APAP vs. UT): 0.5701 | Gm23935 pct.1 (APAP vs. UT): 0.954 | Gm24601 avg_logFC (APAP vs. UT): 0.4962 | Gm24601 pct.1 (APAP vs. UT): 0.198 | Gm26917 avg_logFC (APAP vs. UT): 0.395 | Gm26917 pct.1 (APAP vs. UT): 0.253 | Gm26924 avg_logFC (APAP vs. UT): 0.8508 | Gm26924 pct.1 (APAP vs. UT): 1 | Grip2 avg_logFC (APAP vs. UT): 0.3797 | Grip2 pct.1 (APAP vs. UT): 0.158 | Grn avg_logFC (APAP vs. UT): 0.3692 | Grn pct.1 (APAP vs. UT): 0.62 | Gstm3 avg_logFC (APAP vs. UT): −0.4736 | Gstm3 pct.1 (APAP vs. UT): 0.269 | Gyk avg_logFC (APAP vs. UT): 0.3144 | Gyk pct.1 (APAP vs. UT): 0.583 | Hbb-bs avg_logFC (APAP vs. UT): 1.332 | Hbb-bs pct.1 (APAP vs. UT): 0.125 | Hbb-bt avg_logFC (APAP vs. UT): 0.4482 | Hbb-bt pct.1 (APAP vs. UT): 0.052 | Hdlbp avg_logFC (APAP vs. UT): 0.274 | Hdlbp pct.1 (APAP vs. UT): 0.828 | Herpud1 avg_logFC (APAP vs. UT): 0.2973 | Herpud1 pct.1 (APAP vs. UT): 0.842
